This is an account of results in publication PMC7917842, “Chlortetracycline, a Novel Arf Inhibitor That Decreases the Arf6-Dependent Invasive Properties of Breast Cancer Cells” (Molecules, 2021).

The target of one test is T1, Arf1 (Homo sapiens, UniProt P84077).
T1 construct: recombinant myristoylated Arf1 (myrArf1)
The test is described as follows: spontaneous mant-GTP loading on purified myrArf1 with azolectin, […] CTC; also ARNO-catalysed exchange. It is filed as biochemical.

A further test has as its target T2, Arf6 (Homo sapiens, UniProt P62330).
T2 construct: full-length Arf6, C-terminal hexa-his tag (non myristoylated); also myristoylated Arf6; with EFA6A (exchange factor in the IC50 assay)
The test is described as follows: mant-GTP loading (FRET) on purified Arf6 with EFA6A and azolectin liposomes; also […]GTPγS binding and tryptophan fluorescence. The test is classed as biochemical. In general terms: GTPγS resists hydrolysis and so accumulates on activated G proteins.

T2 sequence (Q8NDX1 whole entry): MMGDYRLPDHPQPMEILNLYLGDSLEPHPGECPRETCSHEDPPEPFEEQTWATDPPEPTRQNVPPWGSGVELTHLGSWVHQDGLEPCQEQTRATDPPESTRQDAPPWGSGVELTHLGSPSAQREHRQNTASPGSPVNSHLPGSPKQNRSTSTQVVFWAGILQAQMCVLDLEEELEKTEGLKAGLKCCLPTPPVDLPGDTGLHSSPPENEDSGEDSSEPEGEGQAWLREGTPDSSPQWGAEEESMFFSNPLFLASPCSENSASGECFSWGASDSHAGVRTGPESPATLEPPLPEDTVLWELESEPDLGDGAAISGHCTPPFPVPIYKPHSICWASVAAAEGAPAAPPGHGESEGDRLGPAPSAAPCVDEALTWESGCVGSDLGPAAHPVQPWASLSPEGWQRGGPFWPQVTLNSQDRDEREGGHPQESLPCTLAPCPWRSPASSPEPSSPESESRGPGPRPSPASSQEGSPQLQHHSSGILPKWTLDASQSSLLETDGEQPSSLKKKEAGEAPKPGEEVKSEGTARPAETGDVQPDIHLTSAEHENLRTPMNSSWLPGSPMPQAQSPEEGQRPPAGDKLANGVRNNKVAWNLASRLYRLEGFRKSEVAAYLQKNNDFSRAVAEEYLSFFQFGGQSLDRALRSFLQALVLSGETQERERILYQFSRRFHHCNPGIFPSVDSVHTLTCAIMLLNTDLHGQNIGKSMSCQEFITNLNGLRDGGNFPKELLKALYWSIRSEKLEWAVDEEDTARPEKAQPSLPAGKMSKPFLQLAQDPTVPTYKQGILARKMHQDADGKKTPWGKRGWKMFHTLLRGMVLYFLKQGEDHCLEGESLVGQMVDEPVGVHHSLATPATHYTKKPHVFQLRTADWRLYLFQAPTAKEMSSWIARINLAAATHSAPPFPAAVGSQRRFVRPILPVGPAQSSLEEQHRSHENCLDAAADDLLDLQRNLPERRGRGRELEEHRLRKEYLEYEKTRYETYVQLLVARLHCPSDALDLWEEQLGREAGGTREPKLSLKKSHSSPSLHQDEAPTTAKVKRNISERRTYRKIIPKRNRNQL
T2 sequence (P62330 2-175): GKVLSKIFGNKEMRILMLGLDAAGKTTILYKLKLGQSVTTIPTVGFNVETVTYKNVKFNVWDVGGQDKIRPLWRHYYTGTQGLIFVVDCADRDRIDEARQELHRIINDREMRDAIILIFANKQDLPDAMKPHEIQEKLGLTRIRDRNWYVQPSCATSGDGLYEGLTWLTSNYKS
T1 sequence (P84077 2-181): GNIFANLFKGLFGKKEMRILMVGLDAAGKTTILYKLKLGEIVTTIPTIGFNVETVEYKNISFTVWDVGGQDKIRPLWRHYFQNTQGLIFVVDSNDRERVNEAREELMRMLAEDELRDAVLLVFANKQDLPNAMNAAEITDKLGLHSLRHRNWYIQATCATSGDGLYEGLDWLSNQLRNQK

As to `CN(C)[C@@H]1C(O)=C(C(N)=O)C(=O)[C@@]2(O)C(O)=C3C(=O)c4c(O)ccc(Cl)c4[C@@](C)(O)[C@H]3C[C@@H]12` [CTC, chlortetracycline], the “spontaneous mant-GTP loading on purified myrArf1 with azolectin, 100 μM CTC; als” value on Arf1 is “CTC was able to strongly inhibit the spontaneous activation on the myristoylated forms of Arf6 (myrArf6) and Arf1 (myrArf1)”. The IC50 (as a rule, the concentration that inhibits the measured activity by half) on Arf6 is 75 µM.
